One experiment relates to C. albicans (isolate). Put plainly: Microdilution with resazurin, antifungal. The following applies: Candida albicans, antimycotics. It counts as cell-based, Candida albicans. The protocol: (§1) The tested methanol, acetone, and n-hexane extracts, as well as the component (usnic acid) of X. stenophylla, were dissolved in 10% dimethyl sulfoxide (DMSO) and then diluted into the nutrient liquid medium. DMSO was obtained from Acros Organics (Fair Lawn, NJ, USA). Resazurin was obtained from Alfa Aesar GmbH & Co. (KG, Karlsruhe, Germany).
(§2) The antimicrobial activity of the extracts and components was tested against 19 microorganisms. The experiment involved 15 strains of bacteria (i.e., 6 standard strains: Staphylococcus aureus ATCC 6538, Bacillus subtilis ATCC 6633, Proteus mirabilis ATCC 12453, Pseudomonas aeruginosa ATCC 27853, Klebsiella pneumoniae ATCC 70063, and Escherichia coli ATCC 25922; 9 isolates: Staphylococcus aureus, Escherichia coli, Salmonella enterica, Salmonella Typhimurium, Proteus mirabilis, Klebsiella pneumoniae, Pseudomonas aeruginosa, Bacillus subtilis, and Bacillus cereus). In addition, four fungal strains (i.e., two standard strains: Candida albicans ATCC 10231 and Aspergillus niger ATCC 16888; two isolates: Saccharomyces cerevisiae and Candida albicans) were tested. All isolates were a generous gift from the Institute of Public Health, Kragujevac. The other microorganisms were provided from the collection held by the Microbiology Laboratory Faculty of Science, University of Kragujevac.
(§3) The bacterial suspensions were prepared by the direct colony method. The turbidity of the initial suspension was adjusted using a densitometer (DEN-1, BioSan, Riga, Latvia). When adjusted to the turbidity of the 0.5 McFarland’s standard (Andrews, 2005) the bacteria suspension contained approximately 10^8 colony-forming units (CFU)/mL, and the suspension of yeast contained 10^6 CFU/mL; 1:100 dilutions of the initial suspension were additionally prepared in sterile 0.85% saline. The suspensions of fungal spores were prepared by gentle stripping of spores from slopes with growing mycelia. The resulting suspensions were 1:1000 diluted in sterile 0.85% saline.
(§4) Antimicrobial activity was tested by determining the minimum inhibitory concentrations (MICs) and minimum microbicidal concentrations (MBCs) using the microdilution plate method with resazurin [56]. The 96-well plates were prepared by dispensing 100 μL of Mueller–Hinton broth for bacteria and Sabouard broth for fungi into each well. A 10 μL aliquot from the stock solution of the tested extract or component was added to the first row of the plate. Then, two-fold serial dilutions were performed using a multichannel pipette. The obtained concentration range was from 10 to 0.08 mg/mL. The method is described in detail in [76].
(§5) Each test included growth control and sterility control.
(§6) Minimum microbicidal concentrations were determined by plating 10 μL of samples from wells where no indicator color change or no mycelia growth was recorded on a nutrient agar medium. At the end of the incubation period, the lowest concentration with no growth (no colony) was defined as the minimum microbicidal concentration.
On the technique in general: Dilution methods test growth across graded concentrations, often in twofold steps.

The next experiment has as its system C. albicans ATCC 10231. Put plainly: Microdilution with resazurin, antifungal. The class given is cell-based, Candida albicans. The following applies: Candida albicans, ATCC10231, antimycotics. As to the method:
as §1, §2, §3, §4, §5, §6

A further experiment relates to A. niger ATCC 16888. The experiment can be described thus: Microdilution with resazurin, antifungal. It counts as cell-based, Aspergillus niger. The following applies: Aspergillus niger, ATCC16888, antimycotics. As to the method: as §1, §2, §3, §4, §5, §6
Another experiment deals with P. aeruginosa biofilm. The experiment can be described thus: Antibiofilm activity (biofilm formation, crystal violet). The class given is cell-based, Pseudomonas aeruginosa. The following applies: 48 h; for IC50: Pseudomonas aeruginosa, read-out: BIC50 (biofilm inhibitory concentration, 50% reduction of biofilm coverage). The protocol: (§7) The ability of S. aureus ATCC 6538 and P. aeruginosa to form biofilms was assayed as described by O’Toole et al. with some modifications. Briefly, the tissue culture of 96-well microtiter plates (Sarstedt, Germany) were prepared by dispensing 100 µL of nutrient broth (i.e., Mueller–Hinton broth) into each well. Ten microliters of spore suspension (10^8 colony-forming units (CFU)/mL) was added into each row. […] Biofilms formed by adherent cells in 96-well microtiter plates were stained with crystal violet (0.1% w/v; Fluka AG, Buchs, Switzerland) and incubated at room temperature for 20 min. Excess stain was rinsed off by thorough washing with deionized water and then with […] of 96% ethanol. Optical densities (ODs) of stained adherent bacteria were determined with an enzyme-linked immunosorbent assay (ELISA) plate reader (RT-2100C, Rayto, Shenzhen, China) at a 630 nm wavelength. Only broth served as a control to check sterility and nonspecific binding of media. To compensate for background absorbance, OD readings from sterile medium, fixative, and dye were averaged and subtracted from all test values. All tests were performed in duplicate. The tissue culture of 96-well microtiter plates (Sarstedt, Nümbrecht, Germany) were prepared by dispensing 100 µL of nutrient broth (i.e., Mueller–Hinton broth) into each well. From the stock solution of the tested extracts or components (concentration: 20 mg/mL), 100 µL was added to the first row of the microtiter plate. Two-fold serial dilutions were then made using a multichannel pipette, following which 10 µL of fresh bacterial suspension was added to each well. The inoculated microtiter plates were incubated at 37 °C for 48 h. After incubation, the content of each well was gently removed by tapping the microtiter plates. […] Biofilms formed by adherent cells in 96-well microtiter plates were stained with crystal violet (0.1% w/v; Fluka AG, Switzerland) and incubated at room temperature for 20 min. Excess stain was rinsed off by thorough washing with deionized water and then with […] densities (ODs) of stained adherent bacteria were determined with an enzyme-linked immunosorbent assay (ELISA) plate reader at a 630 nm wavelength. […] Only broth or broth with extracts served as a control to check the sterility and nonspecific binding of media. To compensate for background absorbance, OD readings from sterile medium, extracts, fixative, and dye were averaged and subtracted from all test values. All tests were performed in duplicate.

Experiment [1] has as its system S. aureus ATCC 6538 biofilm. The description is as above. The class given is cell-based, Staphylococcus aureus. The following applies: for IC50: Staphylococcus aureus, read-out: BIC50 (biofilm inhibitory concentration, 50% reduction of biofilm coverage). The protocol:
as §7

The test system of experiment [2] is HCT 116 cells (colon cancer). Put plainly: MTT assay. It counts as cell-based, human. The following applies: for GI50 / IC50: Homo sapiens; for GI50: read-out: GI50 (50% growth inhibition); for IC50: read-out: IC50. On the technique in general: Tetrazolium assays rely on reduction of a dye to a coloured formazan, in cell work by metabolically active cells.
For experiment [3], the system named is HeLa cells (cervical adenocarcinoma). The experiment can be described thus: MTT assay. It counts as cell-based, human. The following applies: for TGI (total growth inhibition) / GI50 / IC50: HeLa; for GI50 / IC50: Homo sapiens; for GI50: read-out: GI50 (50% growth inhibition); for IC50: read-out: IC50; for SI (selectivity index): IC50 MRC-5 / IC50 HeLa.
The subject of experiment [4] is MRC-5 cells (nontransformed human lung fibroblast). The experiment can be described thus: MTT assay. The class given is cell-based. The following applies: for GI50 / IC50: Homo sapiens; for GI50: MRC5, read-out: GI50 (50% growth inhibition); for IC50: MRC5, read-out: IC50.
The mark [5] stands for this setting: S. aureus ATCC 6538, 37 °C, 48 h.

Converted amounts (≈) assume the structure as drawn. Where two headings read alike, the source gives them in different places. Some results are limits rather than exact numbers.

Broadly, the MFC is the lowest tested concentration that kills the fungus rather than only halting it. As a reminder, the MIC is the smallest concentration in the dilution series that meets the test's criterion for growth inhibition. With `C[C@@H]1[C@H](O)[C@@H](C)/C=C/C=C/C=C/C=C/C=C/C=C/C=C/[C@H](O[C@@H]2O[C@H](C)[C@@H](O)[C@H](N)[C@@H]2O)C[C@@H]2O[C@](O)(C[C@@H](O)C[C@@H](O)[C@H](O)CC[C@@H](O)C[C@@H](O)CC(=O)O[C@H]1C)C[C@H](O)[C@H]2C(=O)O` [AB, amphotericin B], the values for the MFC in the experiment on C. albicans (isolate) (read-out: MFC), with C. albicans ATCC 10231 (read-out: MFC) and in the experiment on A. niger ATCC 16888 (read-out: MFC) were 1.95 mg/L (≈ 2.11 µM), 1.95 mg/L (≈ 2.11 µM) and 0.98 mg/L (≈ 1.06 µM), respectively. Also, the minimum inhibitory concentration (MIC) is 0.98 mg/L (≈ 1.06 µM) with C. albicans (isolate) (read-out: MIC), 0.49 mg/L (≈ 0.53 µM) in the experiment with C. albicans ATCC 10231 (read-out: MIC) and 0.98 mg/L (≈ 1.06 µM) in the experiment with A. niger ATCC 16888 (read-out: MIC).
In the case of `CO/N=C(\C(=O)N[C@@H]1C(=O)N2C(C(=O)O)=C(CSc3nc(=O)c(=O)[nH]n3C)CS[C@H]12)c1csc(N)n1` [CT, ceftriaxone], the “BIC90 (biofilm inhibitory concentration, 90% reduction of biofilm coverage)” value in the experiment with P. aeruginosa biofilm (P. aeruginosa, 37 °C) is more than 1000 µg/mL; in experiment [1] (setting [5]), more than 1000 µg/mL. For the same molecule, the IC50 in the experiment on P. aeruginosa biofilm (P. aeruginosa, 37 °C) turned out to be 116 mg/L (≈ 210 µM); in experiment [1] (ATCC6538, S. aureus ATCC 6538, 37 °C, 48 h), 475 mg/L (≈ 857 µM).
The GI50 is the concentration that inhibits growth by half. Regarding `COc1cccc2c1C(=O)c1c(O)c3c(c(O)c1C2=O)C[C@@](O)(C(=O)CO)C[C@@H]3O[C@H]1C[C@H](N)[C@H](O)[C@H](C)O1` [DOX, doxorubicin], the “TGI (total growth inhibition)” value was less than 0.1 mg/L in experiment [2] (HCT 116, 24 h); less than 0.1 mg/L in experiment [2] (HCT 116, 48 h); less than 0.1 mg/L in experiment [2] (HCT 116, 72 h); less than 0.1 mg/L in experiment [3] (24 h); less than 0.1 mg/L in experiment [3] (48 h); less than 0.1 mg/L in experiment [3] (72 h). Moreover, the “TGI (total growth inhibition)” value in experiment [4] (MRC-5, 24 h) came out at 54.71 ± 4.65 mg/L (≈ 101 µM); in experiment [4] (MRC-5, 48 h), 6.34 ± 2.90 mg/L (≈ 11.7 µM); in experiment [4] (MRC-5, 72 h), 2.35 ± 0.35 mg/L (≈ 4.32 µM). Besides, the GI50 in experiment [2] (HCT 116, 24 h) is less than 0.1 mg/L; in experiment [2] (HCT 116, 48 h), less than 0.1 mg/L; in experiment [2] (HCT 116, 72 h) it was less than 0.1 mg/L; in experiment [3] (24 h), less than 0.1 mg/L; in experiment [3] (48 h), less than 0.1 mg/L; in experiment [3] (72 h) it was less than 0.1 mg/L. The GI50 in experiment [4] (MRC-5, 24 h) was less than 0.1 mg/L; in experiment [4] (MRC-5, 48 h), less than 0.1 mg/L; in experiment [4] (MRC-5, 72 h), less than 0.1 mg/L. In addition, the IC50 in experiment [2] (HCT 116, 24 h) turned out to be 153 ± 9.69 mg/L (≈ 281 µM); in experiment [2] (HCT 116, 72 h), 0.41 ± 0.16 mg/L (≈ 0.754 µM); in experiment [3] (24 h) it was 22.9 ± 3.05 mg/L (≈ 42.2 µM); in experiment [3] (48 h), 1.04 ± 0.06 mg/L (≈ 1.91 µM); in experiment [3] (72 h) it was 0.14 ± 0.01 mg/L (≈ 0.258 µM); in experiment [4] (MRC-5, 24 h), 86.9 ± 17.2 mg/L (≈ 160 µM). Moreover, the IC50 worked out at 0.96 ± 0.1 mg/L (≈ 1.77 µM) in experiment [4] (MRC-5, 48 h) and 0.1 ± 0.05 mg/L (≈ 0.184 µM) in experiment [4] (MRC-5, 72 h). The “SI (selectivity index)” value in experiment [2] (IC50 MRC-5 / IC50 HCT 116, 24 h) amounted to 0.57; in experiment [2] (IC50 MRC-5 / IC50 HCT 116, 72 h), 0.24; in experiment [3] (24 h) it was 3.8; in experiment [3] (48 h) it was 0.92; in experiment [3] (72 h), 0.71.
With `CN[C@H](CC(C)C)C(=O)N[C@H]1C(=O)N[C@@H](CC(N)=O)C(=O)N[C@H]2C(=O)N[C@H]3C(=O)N[C@H](C(=O)N[C@H](C(=O)O)c4cc(O)cc(O)c4-c4cc3ccc4O)[C@H](O)c3ccc(c(Cl)c3)Oc3cc2cc(c3O[C@@H]2O[C@H](CO)[C@@H](O)[C@H](O)[C@H]2O[C@H]2C[C@](C)(N)[C@H](O)[C@H](C)O2)Oc2ccc(cc2Cl)[C@H]1O` [VM, vancomycin], the “BIC90 (biofilm inhibitory concentration, 90% reduction of biofilm coverage)” value is reported as more than 1000 µg/mL in the experiment on P. aeruginosa biofilm (P. aeruginosa, 37 °C) and more than 1000 µg/mL in experiment [1] (setting [5]). Besides, the IC50 in the experiment with P. aeruginosa biofilm came to 734 mg/L (≈ 506 µM); in experiment [1] (ATCC6538, 48 h), 62.6 mg/L (≈ 43.2 µM).

Source of the values: paper PMC9269301, “Phytochemical Analysis, Antioxidant, Antimicrobial, and Cytotoxic Activity of Different Extracts of Xanthoparmelia stenophylla Lichen from Stara Planina, Serbia” (Plants, 2022).
